Test results as given in US20240122990A1, “COMPOSITIONS AND METHODS FOR CARDIOMYOCYTE TRANSPLANTATION” (UNIVERSITY OF WASHINGTON, priority 2021, published 2024).

Tests used:
[1] = system: riPSC-CM cardiomyocyte grafts; assay: Allogeneic rhesus iPSC-CM transplantation into MHC-mismatched rhesus recipients, histopathological immune rejection of the graft; type: in vivo, rhesus macaque (Macaca mulatta); conditions: low-dose subcutaneous TAC alone, trough 5-10 ng/mL; 8 weeks post-transplant; 200×10^6 riPSC-CMs
Source text: To identify a minimal, steroid-sparing immunosuppression regimen for first-in-human allogeneic transplantation, a non-human primate (NHP) model was developed where rhesus iPSC-CM are transplanted into normal or infarcted hearts of MHC-mismatched recipients. Allogeneic iPSCs derived from rhesus macaque (Macaca mulatta) were differentiated into a highly enriched population of cardiomyocytes (riPSC-CMs). 200×10^6 riPSC-CMs were transplanted into 11 MHC-mismatched rhesus recipients. The primary study endpoint was the degree of histopathological immune rejection. […] Subsequent studies focused on 8-week engraftment, with promising regimens studied further out to 16 weeks.

[2] = system: T-cell activation; conditions: relative to abatacept; cited from earlier work

Question: With `C=CC[C@@H]1/C=C(\C)C[C@H](C)C[C@H](OC)[C@H]2O[C@@](O)(C(=O)C(=O)N3CCCC[C@H]3C(=O)O[C@H](/C(C)=C/[C@@H]3CC[C@@H](O)[C@H](OC)C3)[C@H](C)[C@@H](O)CC1=O)[C@H](C)C[C@@H]2OC` [tacrolimus] as the compound, how does the “degree of histopathological immune rejection of the graft” value [1] read?
Answer: moderate to severe rejection

Question: For “Belatacept: derivative of abatacept comprising two amino acid alterations in the CD80/86 binding portion”, which “increase in the ability to inhibit T-cell activation in vitro compared to abatacept” value [2] is on record?
Answer: 10 fold
